Source: patent publication US20140348819A1, “Methods of Treating Cancer” (Dana-Farber Cancer Institute, Inc., priority 2011, published 2014)

Experiments:
[1] = system: six V600E BRAF melanoma cell lines; test: Screening of recombinant RTK ligands for ability to confer resistance to BRAFi (PLX4720) or MEKi (PD184352) (Table 4); assay type: cell-based, human; parameters: ability of recombinant RTK ligand to confer resistance / ability of recombinant RTK ligand to confer resistance (screening value): scale not given here
Summary of the method: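 Resistance to BRAFi (PLX4720) or MEKi (PD184352) was tested in six V600E BRAF melanoma lines given one of 22 recombinant RTK ligands. For a subset of RTKs, activation was checked by high-throughput tyrosine kinase phosphorylation profiling and western blot.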

pERK/pAKT = test: High-throughput western analysis of pERK/pAKT re-activation by RTK ligands under BRAFi/MEKi; assay type: cell-based, human; settings: under BRAFi (PLX4720); after 1 hour of cytokine treatment; six V600E BRAF melanoma cell lines
Experimental: FIG. 23B is a western blot showing the activation of AKT (phosphorylated AKT, S473) after 1 hour and 24 hours after treatment with HGF, IGF-1 (IGF), and Insulin (INS) in the presence of BRAFi (PLX4720, 2 μM). FIG. 23C is a western blot showing the effect of HGF (25 ng/mL) on MAPK and PI3K/AKT pathway activation (pRAF1, pMEK, pERK, pAKT and pMET) in melanoma cell lines after 24 hours of treatment with 2 μM BRAFi (PLX4720) or 2 μM MEKi (PD184352).
To understand why, of all the RTKs tested, only HGF could induce such a unique primary resistance phenotype, a high-throughput western analysis was used to test the ability of all 22 RTK ligands to re-activate pERK/pAKT under BRAFi (PLX4720) treatment in six V600E BRAF melanoma cell lines. […] However, whereas the activation of both ERK and AKT by HGF under PLX4720 treatment was long lasting, the activation of either ERK or AKT by the above cytokines was only transient and thus could not confer resistance to the melanoma cell lines.

With “insulin: RTK ligand (INSR), cytokine tested” as the substance, how does the “ability of recombinant RTK ligand to confer resistance” value (“ability of recombinant RTK ligand” below) ([1]; A2058, PD184352 - 1 uM, ligand 156.25 ng/ml) read?
Its value is 0.98.

And the “ability of recombinant RTK ligand” value ([1]; A2058, PD184352 - 1 uM, ligand 625 ng/ml)?
Its value is 0.99.

What about the “ability of recombinant RTK ligand” value ([1]; A2058, PD184352 - 1 uM, ligand 2500 ng/ml) of the same substance?
The value was 1.14.

And the “ability of recombinant RTK ligand” value ([1]; A2058, PD184352 - 1 uM, ligand 10000 ng/ml)?
Its value is 1.03.

And the “ability of recombinant RTK ligand” value ([1]; A2058, PD184352 - 1 uM, ligand 40000 ng/ml)?
Its value is 1.06.

What about the “ability of recombinant RTK ligand” value ([1]; A2058, PLX4720 - 2 uM, ligand 156.25 ng/ml) of the same substance?
Its value is 0.98.

What about the “ability of recombinant RTK ligand” value ([1]; A2058, PLX4720 - 2 uM, ligand 625 ng/ml) of the same substance?
The value was 0.96.

And the “ability of recombinant RTK ligand” value ([1]; A2058, PLX4720 - 2 uM, ligand 2500 ng/ml)?
The value was 1.12.

And the “ability of recombinant RTK ligand” value ([1]; A2058, PLX4720 - 2 uM, ligand 10000 ng/ml)?
Its value is 1.02.

And the “ability of recombinant RTK ligand” value ([1]; A2058, PLX4720 - 2 uM, ligand 40000 ng/ml)?
The value was 1.11.

What about the “ability of recombinant RTK ligand” value ([1]; C32, PD184352 - 1 uM, ligand 156.25 ng/ml) of the same substance?
Its value is 1.09.

What about the “ability of recombinant RTK ligand” value ([1]; C32, PD184352 - 1 uM, ligand 625 ng/ml) of the same substance?
The value was 1.08.

And the “ability of recombinant RTK ligand” value ([1]; C32, PD184352 - 1 uM, ligand 2500 ng/ml)?
Its value is 1.20.

And the “ability of recombinant RTK ligand” value ([1]; C32, PD184352 - 1 uM, ligand 10000 ng/ml)?
Its value is 1.08.

And the “ability of recombinant RTK ligand” value ([1]; C32, PD184352 - 1 uM, ligand 40000 ng/ml)?
The value was 1.04.

And the “ability of recombinant RTK ligand” value ([1]; C32, PLX4720 - 2 uM, ligand 156.25 ng/ml)?
Its value is 1.14.

What about the “ability of recombinant RTK ligand” value ([1]; C32, PLX4720 - 2 uM, ligand 625 ng/ml) of the same substance?
Its value is 1.05.

What about the “ability of recombinant RTK ligand” value ([1]; C32, PLX4720 - 2 uM, ligand 2500 ng/ml) of the same substance?
The value was 1.20.

And the “ability of recombinant RTK ligand” value ([1]; C32, PLX4720 - 2 uM, ligand 10000 ng/ml)?
The value was 1.02.

And the “ability of recombinant RTK ligand” value ([1]; C32, PLX4720 - 2 uM, ligand 40000 ng/ml)?
Its value is 1.04.

What about the “ability of recombinant RTK ligand” value ([1]; Colo 829, PD184352 - 1 uM, ligand 156.25 ng/ml) of the same substance?
The value was 0.91.

And the “ability of recombinant RTK ligand” value ([1]; Colo 829, PD184352 - 1 uM, ligand 625 ng/ml)?
Its value is 0.98.

What about the “ability of recombinant RTK ligand” value ([1]; Colo 829, PD184352 - 1 uM, ligand 2500 ng/ml) of the same substance?
The value was 0.98.

And the “ability of recombinant RTK ligand” value ([1]; Colo 829, PD184352 - 1 uM, ligand 10000 ng/ml)?
Its value is 1.02.

And the “ability of recombinant RTK ligand” value ([1]; Colo 829, PD184352 - 1 uM, ligand 40000 ng/ml)?
Its value is 1.02.

And the “ability of recombinant RTK ligand” value ([1]; Colo 829, PLX4720 - 2 uM, ligand 156.25 ng/ml)?
The value was 0.91.

And the “ability of recombinant RTK ligand” value ([1]; Colo 829, PLX4720 - 2 uM, ligand 625 ng/ml)?
Its value is 0.93.

And the “ability of recombinant RTK ligand” value ([1]; Colo 829, PLX4720 - 2 uM, ligand 2500 ng/ml)?
The value was 0.97.

What about the “ability of recombinant RTK ligand” value ([1]; Colo 829, PLX4720 - 2 uM, ligand 10000 ng/ml) of the same substance?
The value was 1.01.

And the “ability of recombinant RTK ligand” value ([1]; Colo 829, PLX4720 - 2 uM, ligand 40000 ng/ml)?
Its value is 1.00.

And the “ability of recombinant RTK ligand” value ([1]; G-361, PD184352 - 1 uM, ligand 156.25 ng/ml)?
The value was 0.98.

And the “ability of recombinant RTK ligand” value ([1]; G-361, PD184352 - 1 uM, ligand 625 ng/ml)?
The value was 0.91.

What about the “ability of recombinant RTK ligand” value ([1]; G-361, PD184352 - 1 uM, ligand 2500 ng/ml) of the same substance?
The value was 1.01.

And the “ability of recombinant RTK ligand” value ([1]; G-361, PD184352 - 1 uM, ligand 10000 ng/ml)?
Its value is 0.98.

What about the “ability of recombinant RTK ligand” value ([1]; G-361, PD184352 - 1 uM, ligand 40000 ng/ml) of the same substance?
Its value is 0.97.

And the “ability of recombinant RTK ligand” value ([1]; G-361, PLX4720 - 2 uM, ligand 156.25 ng/ml)?
Its value is 0.92.

What about the “ability of recombinant RTK ligand” value ([1]; G-361, PLX4720 - 2 uM, ligand 625 ng/ml) of the same substance?
The value was 0.88.

And the “ability of recombinant RTK ligand” value ([1]; G-361, PLX4720 - 2 uM, ligand 2500 ng/ml)?
Its value is 0.98.

And the “ability of recombinant RTK ligand” value ([1]; G-361, PLX4720 - 2 uM, ligand 10000 ng/ml)?
The value was 0.96.

What about the “ability of recombinant RTK ligand” value ([1]; G-361, PLX4720 - 2 uM, ligand 40000 ng/ml) of the same substance?
Its value is 0.99.

What about the “ability of recombinant RTK ligand” value ([1]; SK-MEL-5, PD184352 - 1 uM, ligand 156.25 ng/ml) of the same substance?
Its value is 1.20.

What about the “ability of recombinant RTK ligand” value ([1]; SK-MEL-5, PD184352 - 1 uM, ligand 625 ng/ml) of the same substance?
The value was 1.24.

What about the “ability of recombinant RTK ligand” value ([1]; SK-MEL-5, PD184352 - 1 uM, ligand 2500 ng/ml) of the same substance?
Its value is 1.30.

And the “ability of recombinant RTK ligand” value ([1]; SK-MEL-5, PD184352 - 1 uM, ligand 10000 ng/ml)?
The value was 1.28.

What about the “ability of recombinant RTK ligand” value ([1]; SK-MEL-5, PD184352 - 1 uM, ligand 40000 ng/ml) of the same substance?
The value was 1.66.

And the “ability of recombinant RTK ligand” value ([1]; SK-MEL-5, PLX4720 - 2 uM, ligand 156.25 ng/ml)?
The value was 1.10.

What about the “ability of recombinant RTK ligand” value ([1]; SK-MEL-5, PLX4720 - 2 uM, ligand 625 ng/ml) of the same substance?
The value was 1.18.

What about the “ability of recombinant RTK ligand” value ([1]; SK-MEL-5, PLX4720 - 2 uM, ligand 2500 ng/ml) of the same substance?
Its value is 1.27.

And the “ability of recombinant RTK ligand” value ([1]; SK-MEL-5, PLX4720 - 2 uM, ligand 10000 ng/ml)?
The value was 1.26.

What about the “ability of recombinant RTK ligand” value ([1]; SK-MEL-5, PLX4720 - 2 uM, ligand 40000 ng/ml) of the same substance?
The value was 1.43.

And the “ability of recombinant RTK ligand” value ([1]; SK-MEL-28, PD184352 - 1 uM, ligand 156.25 ng/ml)?
The value was 1.01.

And the “ability of recombinant RTK ligand” value ([1]; SK-MEL-28, PD184352 - 1 uM, ligand 625 ng/ml)?
Its value is 0.97.

And the “ability of recombinant RTK ligand” value ([1]; SK-MEL-28, PD184352 - 1 uM, ligand 2500 ng/ml)?
The value was 1.06.

What about the “ability of recombinant RTK ligand” value ([1]; SK-MEL-28, PD184352 - 1 uM, ligand 10000 ng/ml) of the same substance?
The value was 1.13.

What about the “ability of recombinant RTK ligand” value ([1]; SK-MEL-28, PD184352 - 1 uM, ligand 40000 ng/ml) of the same substance?
The value was 1.11.

And the “ability of recombinant RTK ligand” value ([1]; SK-MEL-28, PLX4720 - 2 uM, ligand 156.25 ng/ml)?
Its value is 1.02.

And the “ability of recombinant RTK ligand” value ([1]; SK-MEL-28, PLX4720 - 2 uM, ligand 625 ng/ml)?
The value was 0.95.

And the “ability of recombinant RTK ligand” value ([1]; SK-MEL-28, PLX4720 - 2 uM, ligand 2500 ng/ml)?
The value was 0.99.

And the “ability of recombinant RTK ligand” value ([1]; SK-MEL-28, PLX4720 - 2 uM, ligand 10000 ng/ml)?
Its value is 1.05.

And the “ability of recombinant RTK ligand” value ([1]; SK-MEL-28, PLX4720 - 2 uM, ligand 40000 ng/ml)?
Its value is 1.05.

And the “re-activation of pERK/pAKT” value (pERK/pAKT)?
The value was “only reactivate AKT”.
